Test results published in patent publication US4925865A, “Antimycotic agents” (Bayer Aktiengesellschaft, priority 1987, dated 1990).
≈ marks a conversion by molar mass, not a printed value.

Columns and labels:
[1] = tested on: Torulopsis glabrata; assay: Antimycotic in vitro activity, serial dilution test, Torulopsis glabrata; type: cell-based; details: Nakaseomyces glabratus; 28-37° C., 24 to 96 hours
Protocol: (§1) The in vitro tests were carried out in the serial dilution test using inocula of microorganisms of approximately 5×10^3 to 10^4 microorganisms/ml of substrate. The nutrient medium used was (a) for dermatophytes and Blastomycetes: Sabouraud's test medium (b) for yeasts: meat extract/dextrose broth. The incubation temperature was 28° C. to 37° C., and the incubation period was 24 to 96 hours with yeasts and 96 hours with dermatophytes and Blastomycetes.

[2] = tested on: Microsporum canis; assay: Antimycotic in vitro activity, serial dilution test, Microsporum canis; type: cell-based; details: Sabouraud's test medium, 28-37° C., 96 hours
Protocol: as §1

[3] = tested on: Candida albicans; assay: Antimycotic in vitro activity, serial dilution test, Candida albicans; type: cell-based; details: meat extract/dextrose broth, 28-37° C., 24 to 96 hours
Protocol: as §1

[4] = tested on: dermatophytes, Blastomycetes and yeasts; assay: Antimycotic in vitro activity, serial dilution test, overall comparison; type: cell-based
Protocol: as §1

[5] = tested on: Aspergillus fumigatus; assay: Antimycotic in vitro activity, serial dilution test, Aspergillus fumigatus; type: cell-based; details: 28-37° C.
Protocol: as §1

[6] = tested on: Candida; assay: Antimycotic in vivo activity (oral) in mouse candidiasis; parameters: species or system mouse (SPF-CF1 type); details: for action compared with compounds (A) and (B): oral 10-100 mg/kg; for Action (survival on the 6th day post infection): oral 10-100 mg/kg one hour before and seven hours after i.v. inoculation
Protocol: Mice of the SPF-CF1 type were intravenously inoculated with 1-2×10^6 logarithmically growing Candida cells, suspended in physiological saline solution. One hour before and seven hours after the inoculation, the animals are in each case orally treated with 10-100 mg/kg of body weight of the preparation. Untreated animals died 3 to 6 days post infection. The survival rate on the 6th day post infection was about 5% in untreated control animals.

[7] = tested on: Trichophyton mentagr.; assay: Antimycotic in vitro activity, serial dilution test, Trichophyton mentagr.; type: cell-based, Trichophyton mentagrophytes; details: Sabouraud's test medium, 28-37° C., 96 hours
Protocol: as §1

[8] = tested on: mycoses; details: compare EP-OS No.0,180,850; cited from earlier work

Structure (SMILES) | MIC [1] [µg/mL] | MIC [2] [µg/mL] | MIC [3] [µg/mL] | MIC [5] [µg/mL] | MIC [7] [µg/mL] | antimycotic activity compared with compounds (A) and (B) [4] | action compared with compounds (A) and (B) [6] | Action (survival on the 6th day post infection) [6] | antimycotic properties [8]
OC(Cn1cncn1)(c1ccc(Cl)cc1)C1(Oc2ccc(Cl)cc2Cl)CC1 (stereo not drawn) [(B), 1-(4-chlorophenyl)-1-[1-(2,4-dichlorophenoxy)-cycloprop-1-yl]-2-(1,2,4-triazol-1-yl)-ethan-1-ol, reference compound] | 64 (≈ 151 µM) |  | 16 (≈ 37.7 µM) | > 64 | 64 (≈ 151 µM) |  |  |  | exhibit antimycotic properties
OC(Cn1cncn1)(c1ccc(Cl)cc1)C1(F)CC1 (stereo not drawn) [(A), 1-(4-chlorophenyl)-1-(1-fluoro-cycloprop-1-yl)-2-(1,2,4-triazol-1-yl)-ethan-1-ol, reference compound] |  |  | > 64 | > 64 | > 64 |  |  |  | exhibit antimycotic properties

More lines, main results first:

MIC [1] [µg/mL] | MIC [2] [µg/mL] | MIC [3] [µg/mL] | MIC [5] [µg/mL] | MIC [7] [µg/mL] | Structure (SMILES) | antimycotic activity compared with compounds (A) and (B) [4] | action compared with compounds (A) and (B) [6] | Action (survival on the 6th day post infection) [6] | antimycotic properties [8]
< 1 | < 1 | 2 (≈ 6.13 µM) | < 1 | < 1 | OC(CCc1ccc(Cl)cc1)(Cn1cncn1)C1(Cl)CC1 (stereo not drawn) [Compound I-1, 2-(1-chlorocyclopropyl)-4-(4-chlorophenyl)-1-(1,2,4-triazol-1-yl)-butan-2-ol] | better antimycotic activity than the compounds (A) and (B) | better action than the compounds (A) and (B) | +++ (action = 60% survival on the 6th day post infection) | 
8 (≈ 22.3 µM) | < 1 | 16 (≈ 44.6 µM) | < 1 | < 1 | OC(C=Cc1ccc(Cl)cc1Cl)(Cn1cncn1)C1(Cl)CC1 (stereo not drawn) [Compound I-29] | better antimycotic activity than the compounds (A) and (B) | better action than the compounds (A) and (B) | +++ (action = 60% survival on the 6th day post infection) | 
16 (≈ 47.4 µM) | 2 (≈ 5.92 µM) | 4 (≈ 11.8 µM) | < 1 | < 1 | CSC1(C(O)(CCc2ccc(Cl)cc2)Cn2cncn2)CC1 (stereo not drawn) [Compound I-6] | better antimycotic activity than the compounds (A) and (B) | better action than the compounds (A) and (B) | +++ (action = 60% survival on the 6th day post infection) | 
